The values that follow come from patent publication US9138421B2, “Platinum compounds for treating cell proliferative diseases, preparation method and use thereof” (priority 2011, dated 2015).

For one series, the system named is testis cell ST. The experiment in a line: MTT cytotoxicity, testis cell ST. Format: cell-based. The settings on record: n = 6. How it is done: (§1) The toxic action of Embodiment platinum containing compounds was observed on tumor cells by MTT colorimetric method. Several kinds of tumor cells in exponential growth phase were prepared into single cell suspension, inoculated on 96 pore plat at the density of 4×10^4/hole, cultivated for 24 hours to enable to adhere to wall with 1640 culture medium containing 10% fetal calf serum (complete medium) at 37° C.; the final culture volume was 100 μl. Cell morphology was observed after culture for 24 hours.

The test system of another series is lung cancer H292. The experiment in a line: MTT cytotoxicity, lung cancer H292. Format: cell-based. The note with it: n = 6. How it is done:
as §1

A further series deals with normal mice. As to the kind of experiment: Acute toxic effect of platinum complex on normal mice (LD50). Format: in vivo, Kunming mice. The note with it: single intravenous administration in 5% glucose, 14 days observation, Bliss method. How it is done: (§2) Test 1: Acute Toxic Effect of Platinum Complex on Normal Mice
(§3) Embodiment platinum compound was dissolved with 5% glucose solution. […] Mortality and toxicity were observed after administration.

In the next series the test system is gastric cancer MGC803. As to the kind of experiment: MTT cytotoxicity, gastric cancer MGC803. In kind it is cell-based. The settings on record: n = 6. The method, then: as §1
Another series relates to colon cancer SW480. The experiment in a line: MTT cytotoxicity, colon cancer SW480. Format: cell-based. The note with it: n = 6. How it is done:
as §1

For series [1], the system named is lung cancer H292 cell line. The experiment in a line: In vivo antitumor activity, lung cancer H292 in nude mice. The note with it: H292, 15 mg/kg, every 2 days, 4 times, end 30 days after inoculation.
For another series, the system named is esophagus cancer ECA109. The experiment in a line: MTT cytotoxicity, esophagus cancer ECA109. Format: cell-based. The settings on record: n = 6. How it is done: as §1
Series [2] deals with breast cancer MCF-7 tumor cell line. As to the kind of experiment: In vivo antitumor activity, breast cancer MCF-7 in nude mice. The note with it: MCF-7, 15 mg/kg, every 2 days, 4 times, end 30 days after inoculation.
Series [3] in a line: Acute toxic effect of platinum complex on normal mice (LD50). In kind it is in vivo, Kunming mice. The note with it: both sexes, Kunming, mouse, in vivo; single intravenous administration in 5% glucose, 14 days observation, Bliss method. The method, then:
as §2, §3

The subject of a further series is lung cancer Lewis. The experiment in a line: MTT cytotoxicity, lung cancer Lewis. Format: cell-based. The settings on record: n = 6. How it is done:
as §1

Series [4] concerns Pulmonary epithelial cell BEAS-2B. As to the kind of experiment: MTT cytotoxicity, pulmonary epithelial cell BEAS-2B. Format: cell-based. The settings on record: n = 6. The method, then: as §1

Broadly, the IC50 is the concentration that gives 50% inhibition. The low end stands for greater potency in that assay, the high end for weaker potency in that assay. On to “[2-(3-di-n-propylamine propyl)-malonato].[cis-(1, 2-trans-cyclohexamethylene diamine)]platinum (II) phosphate [compound 16]”, for which the IC50 with testis cell ST was 16 µM; in the series with lung cancer H292 it was 402 µM; in the series on gastric cancer MGC803, 216 µM; in the series with colon cancer SW480, 77 µM. For the same molecule, the LD50 value in the series on normal mice was 0.524 mmol/kg. For the same molecule, in series [1], the “tumor inhibition rate (%)” value came to 35.2 ± 6.43 %.

On to “[2-(2-dimethylamine ethyl)-malonato].[cis-1,3-(2,2-hydroxymethyl)-propane diamine]platinum (II) phosphate [compound 24]”, for which the half-maximal inhibitory concentration (IC50) with esophagus cancer ECA109 came to 125 µM; in the series with testis cell ST it was 153 µM; in the series with lung cancer H292 it was 65 µM; in the series on gastric cancer MGC803, 217 µM. In [2], the “tumor inhibition rate (%)” value is given as 44.8 ± 11.31%. This molecule also returned an LD50 value in the series with normal mice of 0.509 mmol/kg.

`CCN(CC)CCCC1C(=O)[O][Pt]2([NH]C3CCCCC3[NH]2)[O]C1=O.O=P(O)(O)O` (stereo not drawn) [compound 14, [2-(3-diethylamine propyl)-malonato].[cis-(1,2-trans-cyclohexamethylenediamine)]platinum (II) phosphate]: the half-maximal inhibitory concentration (IC50) in the series with testis cell ST was 251 µM; with lung cancer H292 it was 161 µM; with gastric cancer MGC803 it was 213 µM; with colon cancer SW480, 78 µM. Further, in the series with normal mice, the LD50 value is 0.902 mmol/kg. In addition, the “tumor inhibition rate (%)” value in series [1] was found to be 39.8 ± 8.51 %.

In general, LD50 refers to the dose expected to kill half of the subjects tested. Read a low LD50 as greater toxicity. By solubility is commonly meant how much of the substance goes into solution per volume. A high value points to much dissolved substance. With `CNCCC1C(=O)[O][Pt]([NH2])([NH2])[O]C1=O` [compound 1, [2-(2-methylamine ethyl)-malonato].[cis-diamino]platinum (II) phosphate], the LD50 at 14 days in series [3] is 722 µmol/kg. Also, in the series “Solubility in water” (water), the solubility stood at 221 mg/mL.

With “[2-(3-diethylamine propyl)-malonato].[cis-(1,2-trans-diaminocyclopentane)]platinum (II) phosphate [compound 17]”, the half-maximal inhibitory concentration (IC50) came out at 302 µM with testis cell ST, 249 µM with lung cancer H292, 556 µM with gastric cancer MGC803 and 205 µM with colon cancer SW480. In addition, in series [2], the “tumor inhibition rate (%)” value is given as 39.8 ± 12.12%. The same molecule came in with an LD50 value in the series with normal mice of 0.616 mmol/kg.

For `CN(C)CCC1C(=O)[O][Pt]2([NH]C3CCCCC3[NH]2)[O]C1=O` (stereo not drawn) [compound 10, [2-(2-dimethylamino ethyl)-malonato].[cis-(1,2-trans-cyclohexanediamine)] platinum (II)], the 50% inhibitory concentration (IC50) with lung cancer H292 stood at 54 µM; with lung cancer Lewis, 143 µM; in [4], 220 µM; in the series on colon cancer SW480 it was 94 µM. This molecule displayed an LD50 value with normal mice of 0.593 mmol/kg. The “tumor inhibition rate (%)” value in series [1] is listed as 55.3 ± 11.21 ^ %.

Molecule `[NH2][Pt]1([NH2])[O]C(=O)C(CCCN2CCCCC2)C(=O)[O]1` [compound 29, [2-(3-(1-piperidyl)-propyl)-malonato].[cis-diamine]platinum (II) phosphate] returned an LD50 at 14 days in series [3] of 784 µmol/kg. The solubility in the series “Solubility in water” (water) is 159 mg/mL.

Regarding `NCCCC1C(=O)[O][Pt]([NH2])([NH2])[O]C1=O` [compound 4, [2-(3-amino propyl)-malonato].[cis-diamine] platinum (II) phosphate], the median lethal dose (LD50) at 14 days in series [3] amounted to 802 µmol/kg. Moreover, the solubility in “Solubility in water” (water) was 176 mg/mL.

For `CCN(CC)CCCC1C(=O)[O][Pt]2([NH]C3CC3[NH]2)[O]C1=O.O=P(O)(O)O` (stereo not drawn) [compound 19, [2-(3-diethylamine propyl)-malonato].[cis-(1,2-trans-cyclopropyldiamine)]platinum (II) phosphate], the IC50 in the series with esophagus cancer ECA109 came out at 88 µM; in the series on testis cell ST it was 251 µM; in the series with lung cancer H292 it was 62 µM; with gastric cancer MGC803 it was 213 µM. For the same molecule, in series [2], the “tumor inhibition rate (%)” value stood at 52.6 ± 10.5 %. In the series with normal mice, this molecule yielded an LD50 value of 0.802 mmol/kg. In the series “Solubility in water” (in water), this molecule showed a solubility of 218 mg/mL.

As to “[2-(3-dimethylamine propyl)-malonato].[cis-(1,2-trans-cyclohexamethylene diamine)]platinum (II) phosphate [compound 11]”, the IC50 amounted to 6 µM in the series on lung cancer H292, 213 µM in the series on lung cancer Lewis, 168 µM in series [4] and 57 µM in the series on colon cancer SW480. For the same molecule, the LD50 value in the series on normal mice is listed as 0.509 mmol/kg. The “tumor inhibition rate (%)” value in series [1] is listed as 35.9 ± 7.13 %.

Turning to `CCN(CC)CCC1C(=O)[O][Pt]2([NH]CCC[NH]2)[O]C1=O.O=P(O)(O)O` [compound 21, [2-(2-diethylamine ethyl)-malonato].[cis-1,3-propyldiamine] platinum (II) phosphate], the IC50 in the series on esophagus cancer ECA109 stood at 174 µM; with testis cell ST, 16 µM; with lung cancer H292 it was 205 µM; in the series with gastric cancer MGC803, 216 µM. For the same molecule, the “tumor inhibition rate (%)” value in series [2] is 40.3 ± 9.65%. Also, the LD50 value in the series on normal mice is 0.716 mmol/kg. This molecule yielded a solubility in “Solubility in water” (in water) of 231 mg/mL.

`CN(C)CCC1C(=O)[O][Pt]([NH2])([NH2])[O]C1=O` [compound 2, [2-(2-dimethylamine ethyl)-malonato].[cis-diamine] platinum (II) acetate] showed an LD50 at 14 days in series [3] of 791 µmol/kg. Besides, the solubility in the series “Solubility in water” (water) was found to be 198 mg/mL.

Turning to “[2-(2-diethylamine ethyl)-malonato].[cis-1,2-(1,2-dihydroxymethyl)-ethyldiamine]platinum (II) phosphate [compound 23]”, the IC50 in the series on esophagus cancer ECA109 stood at 212 µM; with testis cell ST, 147 µM; in the series with lung cancer H292, 84 µM; with gastric cancer MGC803, 367 µM. Further, the “tumor inhibition rate (%)” value in series [2] is recorded as 44.1 ± 15.12%. Also, in the series on normal mice, the LD50 value turned out to be 0.702 mmol/kg.

Molecule `CN(C)CCCC1C(=O)[O][Pt]([NH2])([NH2])[O]C1=O` [compound 3, [2-(3-dimethylamine propyl)-malonato].[cis-diamine] platinum (II) phosphate] returned an LD50 at 14 days in series [3] of 824 µmol/kg. Besides, the solubility in the series “Solubility in water” (water) was 164 mg/mL.

As to “[2-(2-dimethylamine ethyl)-malonato].[cis-1,2-ethylenediamine] platinum (II) tosilate [compound 20]”, the IC50 came out at 193 µM in the series on esophagus cancer ECA109, 12 µM in the series on testis cell ST, 351 µM in the series with lung cancer H292 and 149 µM with gastric cancer MGC803. In [2], the “tumor inhibition rate (%)” value is 54.52 ± 10.25 %. The molecule further had an LD50 value in the series with normal mice of 0.753 mmol/kg.

On to `CCN(CC)CCC1C(=O)[O][Pt]2([NH]C3CCCCC3[NH]2)[O]C1=O.O=C(O)CC(O)(CC(=O)O)C(=O)O` (stereo not drawn) [compound 13, [2-(2-diethylamine ethyl)-malonato].[cis-(1,2-trans-cyclohexamethylenediamine)]platinum (II) citrate], for which the 50% inhibitory concentration (IC50) with lung cancer H292 was 316 µM; in the series on lung cancer Lewis it was 36 µM; in series [4] it was 145 µM; in the series on colon cancer SW480, 80 µM. In addition, in series [1], the “tumor inhibition rate (%)” value is given as 56.1 ± 9.81 ^ %.

For the molecule `CCN(CC)CCCC1C(=O)[O][Pt]2([NH]C3CCC3[NH]2)[O]C1=O.O=C(O)CCC(=O)O` (stereo not drawn) [compound 18, 2-(3-diethylaminepropyl)-malonic.cis-(1,2-trans-aminocyclobutyl) platinum (II) succinate], the half-maximal inhibitory concentration (IC50) in the series with testis cell ST came to 147 µM; with lung cancer H292, 224 µM; in the series with gastric cancer MGC803, 367 µM; with colon cancer SW480, 281 µM. The “tumor inhibition rate (%)” value in series [2] is 45.0 ± 9.87%.

For the molecule “[2-(2-di-n-propylamine ethyl)-malonato].[cis-1,4-butanediamine] platinum (II) phosphate [compound 22]”, the 50% inhibitory concentration (IC50) with esophagus cancer ECA109 is 215 µM; in the series on testis cell ST, 302 µM; with lung cancer H292, 102 µM; with gastric cancer MGC803, 556 µM. In series [2], the “tumor inhibition rate (%)” value was determined as 40.9 ± 8.97%. For the same molecule, the LD50 value in the series with normal mice is recorded as 0.882 mmol/kg.

On to `[NH2][Pt]1([NH2])[O]C(=O)C(CCCN2CCCC2)C(=O)[O]1` [compound 30, [2-(3-(1-pyrrolidyl)-propyl)-malonato].[cis-diamine] platinum (II) phosphate], for which the LD50 at 14 days in series [3] amounted to 802 µmol/kg. This molecule also registered a solubility in “Solubility in water” (water) of 160 mg/mL.

Molecule `CCN(CC)CCCC1C(=O)[O][Pt]([NH2])([NH2])[O]C1=O` [compound 6, 2-(3-diethylaminepropyl)-malonic-cis-diamino platinum (II) phosphate] yielded an LD50 at 14 days in [3] of 749 µmol/kg. This molecule came in with a solubility in “Solubility in water” (water) of 165 mg/mL.

As for `CCCN(CCC)CCC1C(=O)[O][Pt]2([NH]C3CCCCC3[NH]2)[O]C1=O.O=P(O)(O)O` (stereo not drawn) [compound 15, [2-(2-di-n-propylamine ethyl)-malonato].[cis-(1,2-trans-cyclohexamethylenediamine)]platinum (II) phosphate], the half-inhibitory concentration (IC50) in the series on testis cell ST amounted to 12 µM; in the series on lung cancer H292 it was 651 µM; with gastric cancer MGC803 it was 149 µM; in the series with colon cancer SW480, 92 µM. Besides, in the series with normal mice, the LD50 value is 0.469 mmol/kg. Besides, in series [1], the “tumor inhibition rate (%)” value is 59.0 ± 11.02 ^ %.

For the molecule `CCN(CC)CCC1C(=O)[O][Pt]([NH2])([NH2])[O]C1=O` [compound 5, [2-(2-diethylamine ethyl)-malonato].[cis-diamine] platinum (II) phosphate], in series [3], the median lethal dose (LD50) at 14 days worked out at 853 µmol/kg. Besides, the solubility in “Solubility in water” (water) was determined as 187 mg/mL.
